Assay in all cases: NCI-60 cell line screen, 48 h
The subject of experiment [1] is SF-295 CNS.
Experiment [2] concerns SF-539 CNS.
For experiment [3], the system named is DU-145 prostate.
Experiment [4] relates to HCC-2998 colon.
Experiment [5] concerns RPMI-8226 leukemia.
Experiment [6] relates to OVCAR-5 ovarian.
For experiment [7], the system named is MDA-MB-435.
Experiment [8] deals with U251 CNS.
The test system of experiment [9] is HCT-15 colon.
Experiment [10] has as its system SK-MEL-28 melanoma.

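Tested at 5 concentrations; 48 h exposure; 96-well plates; endpoints linearly interpolated, else capped at highest concentration. Abbreviation: GI50, concentration required for 50% inhibition of growth. TGI is the concentration that stops growth completely.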

Consider `Cn1ccnc1C(=O)/C=C/c1ccc(C(=O)Nc2ccccc2O)cc1`, for which the GI50 in experiment [1] was 3.53 µM; in experiment [2] it was 1.56 µM; in experiment [3], 1.95 µM; in [4], 2.29 µM; in [5], 0.62 µM; in [6] it was 2.39 µM. In addition, the GI50 in experiment [7] is 2.22 µM; in [8] it was 1.46 µM; in experiment [9], 1.42 µM; in [10] it was 2.11 µM. The TGI in experiment [1] was determined as 12.1 µM; in [2], 3.5 µM; in experiment [3], 5.23 µM; in experiment [4] it was 4.26 µM; in [5] it was 3.8 µM; in experiment [6] it was 7.09 µM. The TGI in [7] was 4.85 µM; in [8], 4.03 µM; in [9], 5.49 µM; in experiment [10], 5.07 µM.
Regarding `c1ccc2c(-c3nc4ccccc4[nH]3)cccc2c1`, the GI50 in [1] is 2.98 µM; in experiment [2], 3.77 µM; in [3], 3.04 µM; in [4], 6.96 µM; in [5], 3.19 µM; in [6] it was 8.35 µM. Also, the GI50 is 0.309 µM in [7], 3.72 µM in experiment [8], 1.82 µM in experiment [9] and 4.64 µM in [10]. Also, the TGI in experiment [1] is 29.1 µM; in experiment [2], 23.7 µM; in [3] it was 9.29 µM; in experiment [4], greater than 100 µM; in [5] it was 34.5 µM; in experiment [6], greater than 100 µM. For the same compound, the TGI was 1.44 µM in experiment [7], 26.3 µM in [8], greater than 100 µM in [9] and greater than 100 µM in experiment [10].
Regarding `Cc1ccc(NSc2ccccc2[N+](=O)[O-])cc1`, the GI50 is 0.889 µM in experiment [1]; 0.847 µM in [2]; 0.984 µM in experiment [3]; 1.82 µM in experiment [4]; 0.925 µM in [5]; 3.42 µM in experiment [6]. Further, the GI50 in experiment [7] is 0.0678 µM; in experiment [8], 0.768 µM; in experiment [9], 0.155 µM; in experiment [10], 7.71 µM. The TGI in [1] was 9.18 µM; in experiment [2], 5.11 µM; in experiment [3] it was 15.3 µM; in experiment [4], 10.6 µM; in [5], 52.3 µM; in experiment [6] it was 20.9 µM. Further, the TGI in experiment [7] came out at 0.171 µM; in [8], 16.3 µM; in experiment [9], 14.2 µM; in experiment [10], 26.4 µM.
`N#Cc1c(NC(=O)c2cccc3ccccc23)sc2c1CCCC2`: the GI50 in experiment [1] was 0.0109 µM; in experiment [2], 0.0274 µM; in [3], 0.0759 µM; in [4] it was 0.0751 µM; in [5] it was 0.0872 µM; in experiment [6], 0.139 µM. Moreover, the GI50 in experiment [7] is 0.00636 µM; in [8] it was 0.0622 µM; in experiment [9], 0.0775 µM; in [10], 0.0401 µM. For the same compound, the TGI in experiment [1] is greater than 25 µM; in experiment [2] it was greater than 25 µM; in experiment [3], 2.86 µM; in experiment [4] it was greater than 7.9 µM; in experiment [5], greater than 25 µM; in experiment [6] it was greater than 25 µM. Moreover, the TGI in experiment [7] is 0.0193 µM; in experiment [8] it was greater than 25 µM; in experiment [9], greater than 25 µM; in [10] it was greater than 25 µM.
For `O=C(Nc1cccnc1)c1cccc([N+](=O)[O-])c1`, the GI50 in experiment [1], in experiment [2], in [3], in [4], in experiment [5] and in experiment [6] was greater than 100 µM in each case. For the same compound, the GI50 in experiment [7], in experiment [8], in experiment [9] and in experiment [10] was greater than 100 µM throughout. Further, the TGI in [1], in [2], in experiment [3], in experiment [4], in [5] and in [6] was greater than 100 µM each time. In addition, the TGI in [7], in experiment [8], in [9] and in experiment [10] was greater than 100 µM in each case.
`CN(C)c1ccc(/C=C/c2ccnc3ccccc23)cc1N`: the TGI in [1] came out at 27.7 µM; in experiment [2], 28.8 µM; in experiment [3], 30.2 µM; in experiment [4], 25.3 µM; in experiment [5] it was 15.5 µM; in experiment [6], 31.2 µM. The TGI amounted to 8.06 µM in experiment [7], 40.8 µM in [8], 22.8 µM in experiment [9] and 26.3 µM in experiment [10].
Turning to `Cc1cc(NCCCCNc2ccnc3cc(Cl)ccc23)nc(Nc2ccc(C(=O)N3CCCC3)cc2)n1`, the GI50 in experiment [1] is 1.78 µM; in experiment [2] it was 1.74 µM; in experiment [3], 3.49 µM; in experiment [4] it was 2.99 µM; in experiment [5], 1.34 µM; in [6] it was 4.29 µM. Moreover, the GI50 was 1.79 µM in experiment [7], 2.08 µM in [8], 2.28 µM in experiment [9] and 2 µM in [10]. Also, the TGI is 3.64 µM in [1]; 3.54 µM in experiment [2]; 13.4 µM in [3]; 8.36 µM in experiment [4]; 5.3 µM in [5]; 18 µM in [6]. Besides, the TGI in [7] turned out to be 3.35 µM; in experiment [8] it was 4.8 µM; in experiment [9], 6.75 µM; in [10], 4.12 µM.
Turning to `COc1cc2c3c(n(CCCNC(=O)OCC4c5ccccc5-c5ccccc54)c(=O)c2cc1OC)-c1cc2c(cc1C3=O)OCO2`, the GI50 in experiment [1] is 0.751 µM; in [2] it was 7.25 µM; in experiment [3], greater than 100 µM; in experiment [4], greater than 100 µM; in experiment [5] it was greater than 28.3 µM; in [6] it was greater than 100 µM. In addition, the GI50 in experiment [7] is greater than 100 µM; in [8] it was 1.67 µM; in [9] it was greater than 63.2 µM; in experiment [10] it was greater than 100 µM. Besides, the TGI was greater than 100 µM in [1]; 31.2 µM in [2]; greater than 100 µM in experiment [3]; greater than 100 µM in [4]; greater than 100 µM in [5]; greater than 100 µM in experiment [6]. Moreover, the TGI in experiment [7] is greater than 100 µM; in experiment [8], greater than 87.6 µM; in experiment [9] it was greater than 100 µM; in experiment [10], greater than 100 µM.

Values taken from PubChem BioAssay (NCI).
